Measured values from patent US6444617B1, “Fused-heterocycle dicarboxylic acid diamide derivatives or salts thereof, herbicide and usage thereof” (Nihon Nohyaku Co., Ltd., priority 1998, dated 2002).

Tests used:
Type in all cases: in vivo
[1] = tested on: barnyard grass (Echinochloa crus-galli Beauv.); assay: Test Example 1: herbicidal effect on paddy field weeds before emergence; conditions: Dosage 5 kg/ha
Procedure, shortened: (§1)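 Seeds of both weeds, still ungerminated, in soil pots held under paddy conditions received a set dose of test solution as soil treatment. After twenty-one days, control relative to untreated pots was calculated and rated on a scoring scale.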

[2] = tested on: bulrush (Scirpus juncoides Roxb.); assay: as above; conditions: Dosage 5 kg/ha
Procedure, shortened: as §1

[3] = tested on: barnyard grass (Echinochloa crus-galli Beauv.); assay: Test Example 2: herbicidal effect on paddy field weeds after emergence; conditions: Dosage 5 kg/ha; one-leaved stage; 21 days after treatment
Procedure, shortened: (§2)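 Weeds in flooded paddy-soil pots were grown to the one-leaved stage, then the soil was treated with the compound solution at a set dosage.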

[4] = tested on: bulrush (Scirpus juncoides Roxb.); assay: as above; conditions: Dosage 5 kg/ha; one-leaved stage; 21 days after treatment
Procedure, shortened: as §2

[5] = tested on: monochoria (Monochoria vaginalis Presl); assay: as above; conditions: Dosage 5 kg/ha; one-leaved stage; 21 days after treatment
Procedure, shortened: as §2

[6] = tested on: barnyard grass (Echinochloa crus-galli Beauv.), Ec; assay: Test Example 3: herbicidal effect on upland weeds before emergence; conditions: dosage 5 kg/ha
Procedure, shortened: (§3)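 Herbicidal activity was rated from kill rate determined 14 days post-spray, the compound having been applied pre-emergence as a liquid agent.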

[7] = tested on: bird's eye speedwell (Veronica persica Poir.), Vp; assay: as above; conditions: dosage 5 kg/ha
Procedure, shortened: as §3

[8] = tested on: cleavers (Galium aparine L.), Ga; assay: as above; conditions: dosage 5 kg/ha
Procedure, shortened: as §3

[9] = tested on: cocklebur (Xanthium strumarium L.), Xs; assay: as above; conditions: dosage 5 kg/ha
Procedure, shortened: as §3

[10] = tested on: forxtail grass (Alopecurus aequalis var. amurensis Ohwi), Am; assay: as above; conditions: foxtail grass, dosage 5 kg/ha
Procedure, shortened: as §3

[11] = tested on: velvetleaf (Abutilon theophtasti L.), At; assay: as above; conditions: dosage 5 kg/ha
Procedure, shortened: as §3

soybean plant (So) = assay: Test Example 3: phytotoxicity to upland crop plants, treatment before emergence; conditions: dosage 5 kg/ha
Procedure, shortened: (§4)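 Phytotoxicity scores for soybean and wheat were assigned by a set criterion 14 days after a pre-emergence spray of a liquid preparation containing the test compound at a prescribed concentration.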

wheat (Wh) = assay: as above; conditions: dosage 5 kg/ha
Procedure, shortened: as §4

[12] = tested on: barnyard grass (Echinochloa crus-galli Beauv.), Ec; assay: Test Example 4: herbicidal effect on upland weeds after emergence; conditions: dosage 5 kg/ha; sprayed after emergence; judged 14 days after treatment
Procedure, shortened: (§5)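 Seeds sown in soil and covered. Plants raised to specified leaf stages. Agent with test compound at a prescribed concentration sprayed. Herbicidal effect and crop damage scored after 14 days as weed-killing rate.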

[13] = tested on: bird's eye speedwell (Veronica persica Poir.), Vp; assay: as above; conditions: dosage 5 kg/ha; sprayed after emergence; judged 14 days after treatment
Procedure, shortened: as §5

[14] = tested on: cleavers (Galium aparine L.), Ga; assay: as above; conditions: dosage 5 kg/ha; sprayed after emergence; judged 14 days after treatment
Procedure, shortened: as §5

[15] = tested on: cocklebur (Xanthium strumarium L.), Xs; assay: as above; conditions: dosage 5 kg/ha; sprayed after emergence; judged 14 days after treatment
Procedure, shortened: as §5

[16] = tested on: forxtail grass (Alopecurus aequalis var. amurensis Ohwi), Am; assay: as above; conditions: dosage 5 kg/ha; sprayed after emergence; judged 14 days after treatment
Procedure, shortened: as §5

[17] = tested on: velvetleaf (Abutilon theophtasti L.), At; assay: as above; conditions: dosage 5 kg/ha; sprayed after emergence; judged 14 days after treatment
Procedure, shortened: as §5

soybean plant = assay: Test Example 4: phytotoxicity to upland crop plants, treatment after emergence; conditions: dosage 5 kg/ha, sprayed after emergence, judged 14 days after treatment
Procedure, shortened: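 Weeds, soybean and wheat were sown in soil-filled vats, covered with soil and grown to set leaf stages before a post-emergence spray of an agent containing the compound at a prescribed concentration. Weed-killing rate and crop phytotoxicity were assessed 14 days after treatment.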

wheat = assay: as above; conditions: dosage 5 kg/ha, sprayed after emergence, judged 14 days after treatment
Procedure, shortened: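 Upland weeds and crop plants (soybean, wheat) are grown from seed in soil until they reach given leaf stages, then treated by spraying with the compound-containing agent; effects are judged two weeks later.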

For `Cc1c(Cl)cccc1NC(=O)c1cc2c(C)noc2nc1C(=O)NC1CCCC1` [compound 1085], the “Pre-emergence treatment Barnyard grass (herbicidal effect)” value (“Pre-emergence treatment Barnyard grass” below) [1] was 5 (Weed-killing rate is 100%.), the “Pre-emergence treatment Bulrush (herbicidal effect)” value (“Pre-emergence treatment Bulrush” below) [2] was 5 (Weed-killing rate is 100%.) and the “Post-emergence treatment Barnyard grass (herbicidal effect)” value (“Post-emergence treatment Barnyard grass” for short) [3] was 5 (Weed-killing rate is 100%.). The “Post-emergence treatment Bulrush (herbicidal effect)” value (from here on “Post-emergence treatment Bulrush”) [4] was 5 (Weed-killing rate is 100%.), the “Post-emergence treatment Monochoria (herbicidal effect)” value (shortened to “Post-emergence treatment Monochoria”) [5] was 5 (Weed-killing rate is 100%.) and the “Herbicidal effect Ec” value [6] was 5 (Weed-killing rate is 100%.). The “Herbicidal effect Vp” value [7] was 5 (Weed-killing rate is 100%.), the “Herbicidal effect Ga” value [8] was 5 (Weed-killing rate is 100%.) and the “Herbicidal effect Xs” value [9] was 5 (Weed-killing rate is 100%.). For the same compound, the “Herbicidal effect Am” value [10] was 5 (Weed-killing rate is 100%.), the “Herbicidal effect At” value [11] was 5 (Weed-killing rate is 100%.) and the “Phytotoxicity So” value (soybean plant (So)) was 4 (Crop-killing rate is 90-99%.). The “Phytotoxicity Wh” value (wheat (Wh)) was 5 (Crop-killing rate is 100%.), the “Herbicidal effect Ec” value [12] was 5 (Weed-killing rate is 100%.) and the “Herbicidal effect Vp” value [13] was 5 (Weed-killing rate is 100%.). For the same compound, the “Herbicidal effect Ga” value [14] was 4 (Weed-killing rate is 90-99%.), the “Herbicidal effect Xs” value [15] was 5 (Weed-killing rate is 100%.) and the “Herbicidal effect Am” value [16] was 5 (Weed-killing rate is 100%.). For the same compound, the “Herbicidal effect At” value [17] was 5 (Weed-killing rate is 100%.), the “Phytotoxicity So” value (soybean plant) was 4 (Crop-killing rate is 90-99%.) and the “Phytotoxicity Wh” value (wheat) was 5 (Crop-killing rate is 100%.).

With `CCNC(=O)c1nc2c(cnn2C)cc1C(=O)Nc1c(CC)ccc(Cl)c1CC` [compound 1087] the “Pre-emergence treatment Barnyard grass” value [1] was 5 (Weed-killing rate is 100%.), the “Pre-emergence treatment Bulrush” value [2] was 5 (Weed-killing rate is 100%.) and the “Post-emergence treatment Barnyard grass” value [3] was 5 (Weed-killing rate is 100%.). The “Post-emergence treatment Bulrush” value [4] was 5 (Weed-killing rate is 100%.), the “Post-emergence treatment Monochoria” value [5] was 5 (Weed-killing rate is 100%.) and the “Herbicidal effect Ec” value [6] was 5 (Weed-killing rate is 100%.). For the same compound, the “Herbicidal effect Vp” value [7] was 5 (Weed-killing rate is 100%.), the “Herbicidal effect Ga” value [8] was 5 (Weed-killing rate is 100%.) and the “Herbicidal effect Xs” value [9] was 5 (Weed-killing rate is 100%.). The “Herbicidal effect Am” value [10] was 5 (Weed-killing rate is 100%.), the “Herbicidal effect At” value [11] was 5 (Weed-killing rate is 100%.) and the “Phytotoxicity So” value (soybean plant (So)) was 5 (Crop-killing rate is 100%.). The “Phytotoxicity Wh” value (wheat (Wh)) was 5 (Crop-killing rate is 100%.), the “Herbicidal effect Ec” value [12] was 5 (Weed-killing rate is 100%.) and the “Herbicidal effect Vp” value [13] was 5 (Weed-killing rate is 100%.). For the same compound, the “Herbicidal effect Ga” value [14] was 5 (Weed-killing rate is 100%.), the “Herbicidal effect Xs” value [15] was 5 (Weed-killing rate is 100%.) and the “Herbicidal effect Am” value [16] was 5 (Weed-killing rate is 100%.). For the same compound, the “Herbicidal effect At” value [17] was 5 (Weed-killing rate is 100%.), the “Phytotoxicity So” value (soybean plant) was 4 (Crop-killing rate is 90-99%.) and the “Phytotoxicity Wh” value (wheat) was 5 (Crop-killing rate is 100%.).

For `CCCNC(=O)c1nc2c(cnn2C)cc1C(=O)Nc1c(CC)ccc(Cl)c1CC` [compound 1088], the “Pre-emergence treatment Barnyard grass” value [1] was 5 (Weed-killing rate is 100%.), the “Pre-emergence treatment Bulrush” value [2] was 5 (Weed-killing rate is 100%.) and the “Post-emergence treatment Barnyard grass” value [3] was 5 (Weed-killing rate is 100%.). The “Post-emergence treatment Bulrush” value [4] was 5 (Weed-killing rate is 100%.), the “Post-emergence treatment Monochoria” value [5] was 5 (Weed-killing rate is 100%.) and the “Herbicidal effect Ec” value [6] was 5 (Weed-killing rate is 100%.). For the same compound, the “Herbicidal effect Vp” value [7] was 5 (Weed-killing rate is 100%.), the “Herbicidal effect Ga” value [8] was 5 (Weed-killing rate is 100%.) and the “Herbicidal effect Xs” value [9] was 5 (Weed-killing rate is 100%.). For the same compound, the “Herbicidal effect Am” value [10] was 5 (Weed-killing rate is 100%.), the “Herbicidal effect At” value [11] was 5 (Weed-killing rate is 100%.) and the “Phytotoxicity So” value (soybean plant (So)) was 5 (Crop-killing rate is 100%.). The “Phytotoxicity Wh” value (wheat (Wh)) was 5 (Crop-killing rate is 100%.), the “Herbicidal effect Ec” value [12] was 5 (Weed-killing rate is 100%.) and the “Herbicidal effect Vp” value [13] was 5 (Weed-killing rate is 100%.). For the same compound, the “Herbicidal effect Ga” value [14] was 5 (Weed-killing rate is 100%.), the “Herbicidal effect Xs” value [15] was 5 (Weed-killing rate is 100%.) and the “Herbicidal effect Am” value [16] was 5 (Weed-killing rate is 100%.). For the same compound, the “Herbicidal effect At” value [17] was 5 (Weed-killing rate is 100%.), the “Phytotoxicity So” value (soybean plant) was 5 (Crop-killing rate is 100%.) and the “Phytotoxicity Wh” value (wheat) was 5 (Crop-killing rate is 100%.).

With `CCCNC(=O)c1nc2c(cc1C(=O)Nc1c(CC)ccc(Cl)c1CC)c(C)nn2C` [compound 1112] the “Pre-emergence treatment Barnyard grass” value [1] was 5 (Weed-killing rate is 100%.), the “Pre-emergence treatment Bulrush” value [2] was 5 (Weed-killing rate is 100%.) and the “Post-emergence treatment Barnyard grass” value [3] was 5 (Weed-killing rate is 100%.). For the same compound, the “Post-emergence treatment Bulrush” value [4] was 5 (Weed-killing rate is 100%.), the “Post-emergence treatment Monochoria” value [5] was 5 (Weed-killing rate is 100%.) and the “Herbicidal effect Ec” value [6] was 5 (Weed-killing rate is 100%.). The “Herbicidal effect Vp” value [7] was 5 (Weed-killing rate is 100%.), the “Herbicidal effect Ga” value [8] was 5 (Weed-killing rate is 100%.) and the “Herbicidal effect Xs” value [9] was 5 (Weed-killing rate is 100%.). The “Herbicidal effect Am” value [10] was 5 (Weed-killing rate is 100%.), the “Herbicidal effect At” value [11] was 5 (Weed-killing rate is 100%.) and the “Phytotoxicity So” value (soybean plant (So)) was 5 (Crop-killing rate is 100%.). The “Phytotoxicity Wh” value (wheat (Wh)) was 5 (Crop-killing rate is 100%.), the “Herbicidal effect Ec” value [12] was 5 (Weed-killing rate is 100%.) and the “Herbicidal effect Vp” value [13] was 5 (Weed-killing rate is 100%.). For the same compound, the “Herbicidal effect Ga” value [14] was 5 (Weed-killing rate is 100%.), the “Herbicidal effect Xs” value [15] was 5 (Weed-killing rate is 100%.) and the “Herbicidal effect Am” value [16] was 5 (Weed-killing rate is 100%.). For the same compound, the “Herbicidal effect At” value [17] was 5 (Weed-killing rate is 100%.), the “Phytotoxicity So” value (soybean plant) was 5 (Crop-killing rate is 100%.) and the “Phytotoxicity Wh” value (wheat) was 5 (Crop-killing rate is 100%.).

In the case of `CCCNC(=O)c1nc2nn(C)cc2cc1C(=O)Nc1c(CC)ccc(Cl)c1CC` [compound 1124], the “Pre-emergence treatment Barnyard grass” value [1] is reported as 5 (Weed-killing rate is 100%.), the “Pre-emergence treatment Bulrush” value [2] is reported as 5 (Weed-killing rate is 100%.) and the “Post-emergence treatment Barnyard grass” value [3] is reported as 5 (Weed-killing rate is 100%.). The “Post-emergence treatment Bulrush” value [4] was 5 (Weed-killing rate is 100%.), the “Post-emergence treatment Monochoria” value [5] was 5 (Weed-killing rate is 100%.) and the “Herbicidal effect Ec” value [6] was 5 (Weed-killing rate is 100%.). The “Herbicidal effect Vp” value [7] was 5 (Weed-killing rate is 100%.), the “Herbicidal effect Ga” value [8] was 5 (Weed-killing rate is 100%.) and the “Herbicidal effect Xs” value [9] was 5 (Weed-killing rate is 100%.). The “Herbicidal effect Am” value [10] was 5 (Weed-killing rate is 100%.), the “Herbicidal effect At” value [11] was 5 (Weed-killing rate is 100%.) and the “Phytotoxicity So” value (soybean plant (So)) was 5 (Crop-killing rate is 100%.). For the same compound, the “Phytotoxicity Wh” value (wheat (Wh)) was 5 (Crop-killing rate is 100%.), the “Herbicidal effect Ec” value [12] was 5 (Weed-killing rate is 100%.) and the “Herbicidal effect Vp” value [13] was 5 (Weed-killing rate is 100%.). For the same compound, the “Herbicidal effect Ga” value [14] was 5 (Weed-killing rate is 100%.), the “Herbicidal effect Xs” value [15] was 5 (Weed-killing rate is 100%.) and the “Herbicidal effect Am” value [16] was 5 (Weed-killing rate is 100%.). For the same compound, the “Herbicidal effect At” value [17] was 5 (Weed-killing rate is 100%.), the “Phytotoxicity So” value (soybean plant) was 5 (Crop-killing rate is 100%.) and the “Phytotoxicity Wh” value (wheat) was 5 (Crop-killing rate is 100%.).
